This passage reports Emax and EC50 results from US6936585B2, “Corticotropin releasing factor 2 receptor agonists” (priority 2002, dated 2005).

The target of one test is T1, CRF1R (Homo sapiens, UniProt P34998).
T1 sequence (P34998 24-415): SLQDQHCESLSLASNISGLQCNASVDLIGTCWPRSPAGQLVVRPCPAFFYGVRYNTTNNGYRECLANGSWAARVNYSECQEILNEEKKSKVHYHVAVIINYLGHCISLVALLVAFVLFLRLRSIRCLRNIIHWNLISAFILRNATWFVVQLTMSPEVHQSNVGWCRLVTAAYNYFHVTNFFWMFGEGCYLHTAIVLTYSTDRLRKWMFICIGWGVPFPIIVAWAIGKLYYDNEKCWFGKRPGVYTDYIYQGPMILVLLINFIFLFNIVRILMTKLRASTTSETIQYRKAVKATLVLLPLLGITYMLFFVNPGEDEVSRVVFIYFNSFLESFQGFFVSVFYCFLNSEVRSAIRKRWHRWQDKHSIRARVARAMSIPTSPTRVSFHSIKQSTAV
The test can be described thus: CRF1R agonist activation (EC50 / Emax), called comparative CRF binding. It is filed as cell-based. As to conditions: for Emax: read-out: CRF1R Emax. The procedure, abridged:
(§1)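 Cells expressing human CRF1R or CRF2R are exposed to peptide or vehicle control, and receptor activation is read as cAMP induction, measured in cell lysates or via a CRE-linked reporter gene.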

The target of the next test is T2, CRF2R (Homo sapiens, UniProt Q13324).
T2 sequence (Q13324 1-411): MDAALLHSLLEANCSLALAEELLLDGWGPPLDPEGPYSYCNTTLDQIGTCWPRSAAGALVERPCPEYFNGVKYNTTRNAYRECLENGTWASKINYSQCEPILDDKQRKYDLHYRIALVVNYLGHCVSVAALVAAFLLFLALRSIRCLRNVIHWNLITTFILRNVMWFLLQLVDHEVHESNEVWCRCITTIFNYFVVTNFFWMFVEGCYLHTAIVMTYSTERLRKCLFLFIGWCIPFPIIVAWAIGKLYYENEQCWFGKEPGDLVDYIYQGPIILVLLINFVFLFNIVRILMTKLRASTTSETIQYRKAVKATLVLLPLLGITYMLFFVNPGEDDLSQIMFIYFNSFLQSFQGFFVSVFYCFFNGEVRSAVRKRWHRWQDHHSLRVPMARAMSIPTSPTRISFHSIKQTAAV
Kind of test: CRF2R agonist activation (EC50 / Emax), called comparative CRF binding. The format is cell-based. As to conditions: for Emax: read-out: CRF2R Emax. The procedure, abridged: as §1

Structures are written as SMILES. Peptide text beside a SMILES is read from it. A value given as a limit tells only on which side of the number the result lay.

One may read the Emax as the greatest response seen or fitted, relative to the assay's reference. As for `CC[C@H](C)[C@H](NC(=O)[C@H](CCCNC(=N)N)NC(=O)[C@H](C)NC(=O)[C@H](CC(N)=O)NC(=O)[C@H](CCC(N)=O)NC(=O)[C@H](CCC(=O)O)NC(=O)[C@H](C)NC(=O)[C@H](CCCNC(=N)N)NC(=O)[C@H](CCC(=O)O)NC(=O)[C@H](CCCNC(=N)N)NC(=O)[C@H](CCC(N)=O)NC(=O)[C@H](CO)NC(=O)[C@H](CCC(N)=O)NC(=O)[C@@H](NC(=O)[C@H](CCCCN)NC(=O)[C@H](CCC(=O)O)NC(=O)[C@H](CC(C)C)NC(=O)[C@H](CCC(=O)O)NC(=O)[C@H](CC(C)C)NC(=O)[C@H](CC(C)C)NC(=O)[C@@H](NC(=O)[C@H](CCCNC(=N)N)NC(=O)[C@H](CC(C)C)NC(=O)[C@H](CC(C)C)NC(=O)[C@H](Cc1ccccc1)NC(=O)[C@H](CC(C)C)NC(=O)[C@@H]1CCCN1C(=O)[C@H](CC(C)C)NC(=O)[C@H](CC(=O)O)NC(=O)[C@@H](NC(=O)[C@H](CO)NC(=O)[C@H](CC(C)C)NC(=O)[C@H](CO)NC(=O)[C@@H]1CCCN1C(=O)[C@H](CC(N)=O)NC(=O)[C@@H](N)CC(=O)O)[C@@H](C)CC)[C@@H](C)O)[C@@H](C)O)C(=O)N[C@@H](Cc1ccccc1)C(=O)N[C@@H](CC(=O)O)C(=O)N[C@@H](CCCNC(=N)N)C(=O)N[C@H](C(N)=O)C(C)C` [compound 336] (H-DNPSLSIDLPLFLLRTLLELEKTQSQRERAEQNARIFDRV-NH2; N-terminus assumed), the values for the Emax on CRF1R and on CRF2R were 59.9% and 100%, respectively.

As usually defined, the EC50 is the concentration needed to bring the measured effect to its halfway point. As for `CC[C@H](C)[C@H](NC(=O)[C@H](CCCNC(=N)N)NC(=O)[C@H](C)NC(=O)[C@H](CC(N)=O)NC(=O)[C@H](CCC(N)=O)NC(=O)[C@H](CCC(=O)O)NC(=O)[C@H](C)NC(=O)[C@H](CCCNC(=N)N)NC(=O)[C@H](CCC(=O)O)NC(=O)[C@H](CCCNC(=N)N)NC(=O)[C@H](CCC(N)=O)NC(=O)[C@H](CO)NC(=O)[C@H](CCC(N)=O)NC(=O)[C@@H](NC(=O)[C@H](CCCCN)NC(=O)[C@H](CCC(=O)O)NC(=O)[C@H](CC(C)C)NC(=O)[C@H](CCC(=O)O)NC(=O)[C@H](CC(C)C)NC(=O)[C@H](CC(C)C)NC(=O)[C@@H](NC(=O)[C@H](CCCNC(=N)N)NC(=O)[C@H](CC(C)C)NC(=O)[C@H](CC(C)C)NC(=O)[C@@H](NC(=O)[C@H](CC(C)C)NC(=O)[C@@H]1CCCN1C(=O)[C@H](CC(C)C)NC(=O)[C@H](CC(=O)O)NC(=O)[C@@H](NC(=O)[C@H](CO)NC(=O)[C@H](CC(C)C)NC(=O)[C@H](CO)NC(=O)[C@@H]1CCCN1C(=O)[C@H](CC(N)=O)NC(=O)[C@@H](N)CC(=O)O)[C@@H](C)CC)[C@@H](C)CC)[C@@H](C)O)[C@@H](C)O)C(=O)N[C@@H](Cc1ccccc1)C(=O)N[C@@H](CC(=O)O)C(=O)N[C@@H](CCCNC(=N)N)C(=O)N[C@H](C(N)=O)C(C)C` [compound 337] (H-DNPSLSIDLPLILLRTLLELEKTQSQRERAEQNARIFDRV-NH2; N-terminus assumed), the EC50 at CRF1R (read-out: CRF1R EC50) is not below 1000 nM; at CRF2R (read-out: CRF2R EC50), 23.9 nM. The maximal effect (Emax) at CRF1R worked out at 36.5%; on CRF2R, 86.7%.

In the case of `CC[C@H](C)[C@H](NC(=O)[C@H](CCCNC(=N)N)NC(=O)[C@H](C)NC(=O)[C@H](CC(N)=O)NC(=O)[C@H](CCC(N)=O)NC(=O)[C@H](CCC(=O)O)NC(=O)[C@H](C)NC(=O)[C@H](CCCNC(=N)N)NC(=O)[C@H](CCC(=O)O)NC(=O)[C@H](CCCNC(=N)N)NC(=O)[C@H](CCC(N)=O)NC(=O)[C@H](CO)NC(=O)[C@H](CCC(N)=O)NC(=O)[C@@H](NC(=O)[C@H](CCCCN)NC(=O)[C@H](CCC(=O)O)NC(=O)[C@H](CC(C)C)NC(=O)[C@H](CCC(=O)O)NC(=O)[C@H](CC(C)C)NC(=O)[C@H](CC(C)C)NC(=O)[C@@H](NC(=O)[C@H](CCCNC(=N)N)NC(=O)[C@H](CC(C)C)NC(=O)[C@H](CC(C)C)NC(=O)[C@H](CC(C)C)NC(=O)[C@H](CC(C)C)NC(=O)[C@@H]1CCCN1C(=O)[C@H](CC(C)C)NC(=O)[C@H](CC(=O)O)NC(=O)[C@@H](NC(=O)[C@H](CO)NC(=O)[C@H](CC(C)C)NC(=O)[C@H](CO)NC(=O)[C@@H]1CCCN1C(=O)[C@H](CC(N)=O)NC(=O)[C@@H](N)CC(=O)O)[C@@H](C)CC)[C@@H](C)O)[C@@H](C)O)C(=O)N[C@@H](Cc1ccccc1)C(=O)N[C@@H](CC(=O)O)C(=O)N[C@@H](CCCNC(=N)N)C(=O)N[C@H](C(N)=O)C(C)C` [compound 338] (H-DNPSLSIDLPLLLLRTLLELEKTQSQRERAEQNARIFDRV-NH2; N-terminus assumed), the results for the maximal effect (Emax) at CRF1R and at CRF2R were 41.1% and 77.5%, respectively.

For `CC[C@H](C)[C@H](NC(=O)[C@H](C)NC(=O)[C@H](CC(N)=O)NC(=O)[C@H](CCC(N)=O)NC(=O)[C@H](CCC(=O)O)NC(=O)[C@H](C)NC(=O)[C@H](CCCNC(=N)N)NC(=O)[C@H](CCC(=O)O)NC(=O)[C@H](CCCNC(=N)N)NC(=O)[C@H](CCC(N)=O)NC(=O)[C@H](CO)NC(=O)[C@H](CCC(N)=O)NC(=O)[C@@H](NC(=O)[C@H](CCCNC(=N)N)NC(=O)[C@H](C)NC(=O)[C@H](CC(C)C)NC(=O)[C@H](CCC(=O)O)NC(=O)[C@H](CC(C)C)NC(=O)[C@H](CC(C)C)NC(=O)[C@@H](NC(=O)[C@H](CCCNC(=N)N)NC(=O)[C@H](CC(C)C)NC(=O)[C@H](CC(C)C)NC(=O)[C@H](Cc1ccc(O)cc1)NC(=O)[C@H](CCC(N)=O)NC(=O)[C@@H]1CCCN1C(=O)[C@H](CC(C)C)NC(=O)[C@H](CC(=O)O)NC(=O)[C@@H](NC(=O)[C@H](CO)NC(=O)[C@H](CC(C)C)NC(=O)[C@H](CO)NC(=O)[C@@H]1CCCN1C(=O)[C@H](CC(N)=O)NC(=O)[C@@H](N)CC(=O)O)[C@@H](C)CC)[C@@H](C)O)[C@@H](C)O)C(=O)N[C@H](C(=O)N[C@@H](Cc1ccccc1)C(=O)N[C@@H](C)C(=O)N[C@@H](CO)C(=O)N[C@H](C(N)=O)C(C)C)[C@@H](C)CC` [compound 339] (H-DNPSLSIDLPQYLLRTLLELARTQSQRERAEQNAIIFASV-NH2), the Emax on CRF1R came out at 13.2%; on CRF2R, 47.9%.

In the case of `CC[C@H](C)[C@H](NC(=O)[C@H](CCCNC(=N)N)NC(=O)[C@H](C)NC(=O)[C@H](CC(N)=O)NC(=O)[C@H](CCC(N)=O)NC(=O)[C@H](CCC(=O)O)NC(=O)[C@H](C)NC(=O)[C@H](CCCNC(=N)N)NC(=O)[C@H](CCC(=O)O)NC(=O)[C@H](CCCNC(=N)N)NC(=O)[C@H](CCC(N)=O)NC(=O)[C@H](CO)NC(=O)[C@H](CCC(N)=O)NC(=O)[C@@H](NC(=O)[C@H](CCCNC(=N)N)NC(=O)[C@H](C)NC(=O)[C@H](CC(C)C)NC(=O)[C@H](CCC(=O)O)NC(=O)[C@H](CC(C)C)NC(=O)[C@H](CC(C)C)NC(=O)[C@@H](NC(=O)[C@H](CCCNC(=N)N)NC(=O)[C@H](CC(C)C)NC(=O)[C@H](CC(C)C)NC(=O)[C@H](CC(C)C)NC(=O)[C@H](CC(C)C)NC(=O)[C@@H]1CCCN1C(=O)[C@H](CC(C)C)NC(=O)[C@H](CC(=O)O)NC(=O)[C@@H](NC(=O)[C@H](CO)NC(=O)[C@H](CC(C)C)NC(=O)[C@H](CO)NC(=O)[C@@H]1CCCN1C(=O)[C@H](CC(N)=O)NC(=O)[C@@H](N)CC(=O)O)[C@@H](C)CC)[C@@H](C)O)[C@@H](C)O)C(=O)N[C@@H](Cc1ccccc1)C(=O)N[C@@H](C)C(=O)N[C@@H](CCCNC(=N)N)C(=O)N[C@H](C(N)=O)C(C)C` [compound 340] (H-DNPSLSIDLPLLLLRTLLELARTQSQRERAEQNARIFARV-NH2; N-terminus assumed), the Emax came out at 96% at CRF1R and 100% at CRF2R.

With `CC[C@H](C)[C@H](NC(=O)[C@H](CCCNC(=N)N)NC(=O)[C@H](C)NC(=O)[C@H](CC(N)=O)NC(=O)[C@H](CCC(N)=O)NC(=O)[C@H](CCC(=O)O)NC(=O)[C@H](C)NC(=O)[C@H](CCCNC(=N)N)NC(=O)[C@H](CCC(=O)O)NC(=O)[C@H](CCCNC(=N)N)NC(=O)[C@H](CCC(N)=O)NC(=O)[C@H](CO)NC(=O)[C@H](CCC(N)=O)NC(=O)[C@@H](NC(=O)[C@H](CCCCN)NC(=O)[C@H](CCC(=O)O)NC(=O)[C@H](CC(C)C)NC(=O)[C@H](CCC(=O)O)NC(=O)[C@H](CC(C)C)NC(=O)[C@H](CC(C)C)NC(=O)[C@@H](NC(=O)[C@H](CCCNC(=N)N)NC(=O)[C@H](CC(C)C)NC(=O)[C@H](CC(C)C)NC(=O)[C@H](CC(C)C)NC(=O)[C@H](CC(C)C)NC(=O)[C@@H]1CCCN1C(=O)[C@H](CC(C)C)NC(=O)[C@H](CC(=O)O)NC(=O)[C@@H](NC(=O)[C@H](CO)NC(=O)[C@H](CC(C)C)NC(=O)[C@H](CO)NC(=O)[C@@H]1CCCN1C(=O)[C@H](CC(N)=O)NC(=O)[C@@H](N)CC(=O)O)[C@@H](C)CC)[C@@H](C)O)[C@@H](C)O)C(=O)N[C@@H](Cc1ccccc1)C(=O)N[C@@H](C)C(=O)N[C@@H](CCCNC(=N)N)C(=O)N[C@H](C(N)=O)C(C)C` [compound 341] (H-DNPSLSIDLPLLLLRTLLELEKTQSQRERAEQNARIFARV-NH2; N-terminus assumed), the Emax on CRF1R came to 82.3%; at CRF2R it was 95.5%.
